The test system of assay [1] is human neutrophils. The conditions noted are these: cited from earlier work.
The subject of the next assay is human eosinophils. As to conditions: receptor-mediated; cited from earlier work.
Assay [2] has as its system human neutrophils. Kind of assay: cis-unsaturated fatty acid-induced lipid body formation in human neutrophils (osmium staining, light microscopy enumeration). Format: cell-based. As to conditions: for inhibition at 1 µM / inhibition at 10 µM / inhibition at 5 µM / inhibition at 0.5 µM / inhibition at 1 µg/mL / inhibition at 10 µg/mL: Homo sapiens, Neutrophil, basal subtracted; for inhibition at 1 µM / inhibition at 10 µM: read-out: % inhibition; for inhibition of arachidonic acid-induced lipid body formation / inhibition of oleic acid-induced lipid body formation: human neutrophils, staurosporine 0.1-1.0 μM, aspirin 10 μg/mL, others as in Tables 1 and 2; for inhibition at 1 µg/mL / inhibition at 10 µg/mL: 1 h. How it is done:
Neutrophils were purified from fresh human blood obtained by venipuncture from healthy adult volunteers and collected into acidified citrate. After addition of 6% dextran 70 (McGaw, Irvine, Calif.), RBCs were allowed to sediment for 1 hour at room temperature. The leukocyte-rich supernatant was overlaid onto an equal volume of Ficoll-Paque gradient (Piscataway, N.J.), and centrifuged at 400×g for 20 min. […] Residual RBCs were lysed with hypotonic saline.
Human leukocytes (10^6 cells/mL) were incubated with varying concentrations of arachidonic acid (AA), oleic acid (OA) or vehicle at 37° C. in a 5% CO2 /95% O2 atmosphere, and after 1 hour leukocytes (10^5 cells per slide) were cytocentrifuged (550 rpm, 5 min) onto glass slides. During inhibitory studies, neutrophils were pretreated for 1 hour with varying concentrations of enzyme inhibitors, protein synthesis inhibitors, or vehicle as indicated. When PKC inhibitors were used, the pre-incubation time was reduced to 30 minutes to avoid toxic effects to the cells. […] Stock solutions for A23187, D609, U-73122, and indomethacin were prepared in DMSO and stored at -20° C. Aliquots were diluted in Ca^++ /Mg^++ fee HBSS to the indicated concentration immediately prior to use. […] The morphology of fixed cells was observed, and lipid bodies were enumerated with phase contrast microscopy and a 100× objective lens in 50 consecutively scanned leukocytes.
Results were expressed as mean±SEM and were analyzed statistically by means of the analysis of variance followed by the Newman-Keuls-Student test with the level of significance set at p<0.05. Correlation coefficients were determined by linear regression, and correlation analysis was performed by Fisher's r to z transformation with the level of significance set at p<0.05.
^1 Neutrophils (10^6 /ml) were pretreated with protein kinase C
(actinomycin D, cycloheximide) for 30 min or with phospholipase C
inhibitors (D609, U73122) for 1 h. The cells were then stimulated with
vehicle, arachidonic acid (15 μM), or oleic acid (10 μM), for 1 h.
Results are mean ± SEM from fifty consecutively counted neutrophils.
Statistically significant differences between the agonist alone and the
inhibitor are represented by an asterisk(*). Percent inhibition has been
calculated after subtracting out the basal number of lipid bodies/PMN
present prior to stimulation.
^1 Neutrophils (10^6 /ml) were pretreated with the NSAID or
vehicle for 1 h then stimulated with vehicle, arachidonic acid, or oleic
± SEM from fifty consecutively counted neutrophils. Statistically
significant differences between the agonist alone and the NSAID are
represented by an asterisk (*). Percent inhibition has been calculated
after subtracting out the basal number of lipid bodies/PMN present prior

The subject of assay [3] is peritoneal macrophages from wild type mice. Briefly: lipid body formation in peritoneal macrophages from wild type mice. Format: cell-based, mouse. As to conditions: for % inhibition / lipid bodies (mean ± SEM)/macrophage: wild type, AA 15 μM; for inhibition of lipid body formation in macrophages: wild-type mice, 10 μg/mL. On the procedure:
(§1) FIG. 4 is a graph illustrating the effects of arachidonic acid and oleic acid on lipid body formation in peritoneal macrophages from wild type (+/+) and cyclooxygenase-1 knockout (-/-) mice. The agonists AA and OA are represented by the square and circle symbols, respectively. The closed symbols represent the wild type mice; the open symbols represent the cyclooxygenase-1 knockout mice. Macrophages (10^6 /mL) were incubated with the agonists AA and OA at varying concentrations for an hour. Lipid bodies were enumerated using light microscopy following osmium staining. Each point represents the mean±SEM from fifty consecutively scanned macrophages.
(§2) Cyclooxygenase-1 and cyclooxygenase-2 knockout mice were generated as recently described (Morham et al., Cell 83:473-482 (1995); Langenbach et al., Cell 83:483-492 (1995)). All experiments were carried out with male 8-12 week old mice. Macrophages from cyclooxygenase genetically deficient mice and wild-type litter mates were obtained by lavaging the peritoneal cavity with 5 mL of cold RPMI containing heparin (20 IU/mL).
(§3) ^1 Peritoneal macrophages from wild type and COX 1 knockout mice were
(§4) pretreated with the NSAID or vehicle for 1h and then stimulated with
(§5) arachidonic acid (AA, 15 μM) or vehicle for 1h. Results are mean ±
(§6) SEM from fifty consecutively counted macrophages. The statistically

The subject of assay [4] is peritoneal macrophages from COX 1 knockout mice. Briefly: lipid body formation in peritoneal macrophages from cyclooxygenase-1 knockout mice. The assay is classed as cell-based, mouse. The conditions noted are these: for % inhibition / lipid bodies (mean ± SEM)/macrophage: COX 1 knockout, AA 15 μM; for inhibition of lipid body formation in macrophages: cyclooxygenase-1-deficient mice, 10 μg/mL. On the procedure:
as §1, §2, §3, §4, §5, §6

The test system of assay [5] is neutrophils (arachidonic acid uptake). Briefly: 14C-arachidonic acid uptake in arachidonic acid-stimulated neutrophils. The assay is classed as cell-based, human. As to conditions: for inhibition of 14C-arachidonic acid uptake: arachidonic acid-stimulated cells, aspirin 10 μg/mL, sodium salicylate 10 μg/mL, indomethacin 1 μg/mL; for 14C-AA uptake: stimulus arachidonate 15 μM, drug 1 μg/ml (table footnote). On the procedure: Neutrophils (10^6 /mL) were labeled with ^14 C-arachidonic acid (0.01 μCi/sample) together with either vehicle, aspirin (10 μg/mL), indomethacin (1 μg/mL) or sodium salicylate (10 μg/mL) for 1 hour. After the incubation period, lipid body formation was elicited by arachidonic acid (15 μM). The cells were washed 3 times in Ca^++ /Mg^++ free HBSS and analysis of incorporated ^14 C-arachidonic acid in the cell pellet was performed by liquid scintillation counting.
^1 The cells were pretreated with ^14 Carachidonic acid (0.01
μCi/sample) plus vehicle, aspirin (10 μg/ml) , sodium salicylate (1
μg/ml) or indomethacin (1 μg/ml) 1 h before the incubation with
arachidonic acid (15 μM). Cells were washed 3 times before the analysi
of incorporated ^14 Carachidonic acid. Results are representative of
independent experiments.

Setting [6] is: arachidonic acid 15 μM, inhibitor 1 μM.
Where [7] appears, read: arachidonic acid 15 μM, inhibitor 10 μM.
Setting [8] is: oleic acid 10 μM, inhibitor 1 μM.
Setting [9] is: oleic acid 10 μM, inhibitor 10 μM.
Setting [10] is: oleic acid 10 μM, NSAID 10 μg/ml, 1 h pretreatment.
The mark [11] stands for this setting: arachidonic acid 15 μM, NSAID 10 μg/ml, 1 h pretreatment.
[12] abbreviates: arachidonic acid 15 μM, inhibitor 5 μM.
[13] abbreviates: oleic acid 10 μM, inhibitor 5 μM.
Where [14] appears, read: arachidonic acid 15 μM, inhibitor 0.5 μM.
[15] abbreviates: oleic acid 10 μM, inhibitor 0.5 μM.
[16] abbreviates: arachidonic acid 15 μM, NSAID 1 μg/ml, 1 h pretreatment.
[17] abbreviates: oleic acid 10 μM, NSAID 1 μg/ml, 1 h pretreatment.

Where a name gives a salt, the structure may show the parent alone. Read-outs that look alike come from different tables or passages of the source.

Turning to `CCCCCCCC/C=C\CCCCCCCC(=O)OCC(CO)OC(C)=O` (racemic), the “induction of lipid body formation” value with human neutrophils [1] is “induce lipid body formation”.

As to `CCCCCC=CCC=CCC=CC=CC(O)CCCC(=O)O` (centres unmarked) [5-HETE, 5-hydroxy-6,8,11,14-eicosatetraenoic acid], the “induction of lipid body formation” value with human eosinophils and with human neutrophils [1] was “elicit lipid body formation” throughout.

What is called inhibition is how much of the control response was suppressed. Consider `S=C(S)OC1CC2CC1C1CCCC21` (centres unmarked) [D609], for which the values for the inhibition at 1 µM in the assay with human neutrophils [2] (setting [6]) and in the assay on human neutrophils [2] (setting [8]) were 48% and 19%, respectively. In addition, the inhibition at 10 µM in the assay on human neutrophils [2] (setting [7]) came out at 84%; in the assay on human neutrophils [2] (setting [9]), 46%. Moreover, the “lipid bodies (mean ± SEM)/cell” value with human neutrophils [2] (setting [6]) was 6.5 ± 0.2 lipid bodies/cell; in the assay on human neutrophils [2] (setting [7]), 5.2 ± 0.2 lipid bodies/cell; in the assay on human neutrophils [2] (setting [8]), 9.4 ± 0.3 lipid bodies/cell; in the assay with human neutrophils [2] (setting [9]), 7.8 ± 0.2 lipid bodies/cell.

By % inhibition is commonly meant the percentage by which the read-out fell short of the control. With `O=C(O)c1ccccc1O` [Na salicylate, salicylic acid (sodium salt)], in assay [3] (NSAID 10 μg/ml), the “% inhibition” value was 45% and the “lipid bodies (mean ± SEM)/macrophage” value stood at 5.0 ± 0.3 lipid bodies/macrophage. For the same compound, in assay [3], the “inhibition of lipid body formation in macrophages” value (“inhibition of lipid body formation” below) is “significantly inhibited”. Moreover, in assay [4] (NSAID 10 μg/ml), the “% inhibition” value is listed as 66% and the “lipid bodies (mean ± SEM)/macrophage” value turned out to be 4.0 ± 0.4 lipid bodies/macrophage. Also, in assay [4], the “inhibition of lipid body formation” value is on record as “significantly inhibited”. Also, in the assay with human neutrophils [2] (setting [10]), the inhibition at 10 µM was 53% and the “lipid bodies (mean ± SEM) PMN” value was determined as 10.1 ± 0.4 lipid bodies/PMN. In the assay with human neutrophils [2] (setting [11]), the “lipid bodies (mean ± SEM) PMN” value amounted to 7.9 ± 0.4 lipid bodies/PMN. Also, in the assay with human neutrophils [2], the “inhibition of arachidonic acid-induced lipid body formation” value is on record as “significantly inhibited” and the “inhibition of oleic acid-induced lipid body formation” value is given as “significantly inhibited”. Further, in assay [5], the “inhibition of 14C-arachidonic acid uptake” value is given as “failed to inhibit” and the 14C-AA uptake is 7292 cpm.

With `COc1ccc2c(c1)CC[C@@H]1[C@@H]2CC[C@]2(C)[C@@H](NCCCCCCN3C(=O)C=CC3=O)CC[C@@H]12` [U-73122], the inhibition at 1 µM with human neutrophils [2] (setting [6]) amounted to 45%; with human neutrophils [2] (setting [8]) it was 8%. The inhibition at 5 µM in the assay on human neutrophils [2] (setting [12]) is 85%; in the assay on human neutrophils [2] (setting [13]) it was 24%. The “lipid bodies (mean ± SEM)/cell” value in the assay with human neutrophils [2] (setting [6]) is given as 6.6 ± 0.2 lipid bodies/cell; with human neutrophils [2] (setting [12]) it was 4.9 ± 0.2 lipid bodies/cell; in the assay on human neutrophils [2] (setting [8]) it was 19.3 ± 0.4 lipid bodies/cell; in the assay with human neutrophils [2] (setting [13]), 16.9 ± 0.4 lipid bodies/cell.

For the compound `COc1ccc2c(c[n+](C)c3c4cc5c(cc4ccc23)OCO5)c1OC` [chelerythrine], the inhibition at 0.5 µM was found to be 50% with human neutrophils [2] (setting [14]) and 25% in the assay with human neutrophils [2] (setting [15]). Also, the inhibition at 1 µM in the assay with human neutrophils [2] (setting [6]) stood at 90%; in the assay on human neutrophils [2] (setting [8]) it was 71%. For the same compound, the “lipid bodies (mean ± SEM)/cell” value in the assay on human neutrophils [2] (setting [14]) stood at 7.5 ± 0.3 lipid bodies/cell; with human neutrophils [2] (setting [6]) it was 5.1 ± 0.3 lipid bodies/cell; in the assay on human neutrophils [2] (setting [15]), 7.5 ± 0.2 lipid bodies/cell; in the assay on human neutrophils [2] (setting [8]), 5.8 ± 0.3 lipid bodies/cell.

`COc1ccc2c(c1)c(CC(=O)O)c(C)n2C(=O)c1ccc(Cl)cc1` [indomethacin]: in assay [3] (NSAID 1 μg/ml), the “% inhibition” value was found to be 61% and the “lipid bodies (mean ± SEM)/macrophage” value worked out at 4.4 ± 0.3 lipid bodies/macrophage. Also, the “inhibition of lipid body formation” value in assay [3] is recorded as “significantly inhibited”. Further, in assay [4] (NSAID 1 μg/ml), the “% inhibition” value is 48% and the “lipid bodies (mean ± SEM)/macrophage” value amounted to 4.8 ± 0.4 lipid bodies/macrophage. Further, the “inhibition of lipid body formation” value in assay [4] is “significantly inhibited”. Also, in the assay with human neutrophils [2] (setting [16]), the inhibition at 1 µg/mL was determined as 63% and the “lipid bodies (mean ± SEM) PMN” value is listed as 7.0 ± 0.5 lipid bodies/PMN. In addition, in the assay on human neutrophils [2] (setting [17]), the inhibition at 1 µg/mL was determined as 61% and the “lipid bodies (mean ± SEM) PMN” value is reported as 9.1 ± 0.5 lipid bodies/PMN. Further, in the assay on human neutrophils [2], the “inhibition of arachidonic acid-induced lipid body formation” value is “significantly inhibited” and the “inhibition of oleic acid-induced lipid body formation” value is recorded as “significantly inhibited”. In assay [5], the “inhibition of 14C-arachidonic acid uptake” value was “failed to inhibit” and the 14C-AA uptake is reported as 7095 cpm.

In the case of `CCCCCCCCCCCCCC(=O)O[C@@H]1[C@@H](C)[C@@]2(O)[C@@H](C=C(CO)C[C@]3(O)C(=O)C(C)=C[C@@H]23)[C@@H]2C(C)(C)[C@]12OC(C)=O` [phorbol-12-myristate-13-acetate], the “induction of lipid body formation” value in the assay with human neutrophils [1] is recorded as “induce lipid body formation”.

For the compound `CN1C(C(=O)Nc2ccccn2)=C(O)c2ccccc2S1(=O)=O` [piroxicam], in the assay on human neutrophils [2] (setting [11]), the inhibition at 10 µg/mL is 61% and the “lipid bodies (mean ± SEM) PMN” value is listed as 7.2 ± 0.4 lipid bodies/PMN. In the assay with human neutrophils [2] (setting [10]), the inhibition at 10 µg/mL worked out at 50% and the “lipid bodies (mean ± SEM) PMN” value is on record as 10.4 ± 0.4 lipid bodies/PMN. Moreover, in the assay on human neutrophils [2], the “inhibition of arachidonic acid-induced lipid body formation” value is “significantly inhibited” and the “inhibition of oleic acid-induced lipid body formation” value was “significantly inhibited”.

With `CN[C@@H]1C[C@H]2O[C@@](C)([C@@H]1OC)n1c3ccccc3c3c4c(c5c6ccccc6n2c5c31)C(=O)NC4` [staurosporine], the “lipid bodies (mean ± SEM)/cell” value is on record as 6.1 ± 0.3 lipid bodies/cell with human neutrophils [2] (arachidonic acid 15 μM, inhibitor 0.1 μM); 5.1 ± 0.2 lipid bodies/cell in the assay on human neutrophils [2] (setting [6]); 8.3 ± 0.3 lipid bodies/cell with human neutrophils [2] (oleic acid 10 μM, inhibitor 0.1 μM); 7.7 ± 0.3 lipid bodies/cell in the assay with human neutrophils [2] (setting [8]).

The values are drawn from patent US5837548A, “Treatment of inflammation by inhibition of lipid body formation” (Beth Israel Hospital, priority 1995, dated 1998).
